Data on three molecules can be found in US20240254132A1, “COMPOUNDS, COMPOSITIONS AND METHODS” (Denali Therapeutics Inc., priority 2021, published 2024).

Molecules are shown by their SMILES. Bounds are passed on as bounds.

The test system of this assay is IL-1β secretion, THP-1 cells. The assay is described as follows: IL-1β secretion assay in PMA-differentiated THP-1 cells (LPS + nigericin stimulation, IL-1β ELISA). Type of assay: cell-based. The note with it: Homo sapiens, LPS 25 ng/mL, IL-1β by ELISA. The method, then: Compounds as provided herein were tested in the following assay. Cell culture medium employed contained RPMI 1640 medium (89%), FBS (10%), Pen/Strep (1%), and 2-mercaptoethanol (0.05 mm). Freezing medium was made up of 90% FBS and 10% DMSO. THP-1 cells were removed from the liquid nitrogen and placed into a 37° C. water bath to thaw, until signs of ice dissipated. The cells were then added to 9 mL of warm cell culture medium and centrifuged for 5 minutes at 1000 rpm. The supernatant was discarded, and the cells were resuspended in new cell culture medium. THP-1 cells were then split and cultured in the cell culture medium, being passaged every 2-3 days with the cell density will be maintained between 5×10^5 and 1.5×10^6 viable cells/mL.
Procedure for […], Secretion Assay in 384-Well Plates
PMA was dissolved in DMSO to make a stock solution at 5 mg/mL and stored in 10 μl aliquots at −20° C. for single use. PMA is added to normal growth medium. LPS was diluted with 1 mL of water solution to provide a 1 mg/mL stock solution and stored in 15 μl aliquots at −20° C. for single use. Nigericin is diluted in ice cold 100% ethanol to 5 mg/mL (6.7 mM) and stored in 75 μL aliquots at −20° C. for single use. Serum-free media contains RPMI 1640 medium (99%), Pen/Strep (1%), and 2-mercaptoethanol (0.05 mM). The two control conditions used to qualify and normalize test compound dose-response curves were as follows: High Control=25 ng/mL LPS, 5 μM Nigericin, 0.5% DMSO, Low Control=25 ng/mL, LPS, 0.5% DMSO.
THP-1 cells were diluted to provide a suspension at a concentration of 1.0×10^6 cells/mL with the total volume of suspension required to enable the desired number of assay plates. The growth media was supplemented with PMA (5 ng/mL final concentration) and the cells were incubated at 37° C. under a humidified atmosphere of 5% CO2 for 40 h.
All media was carefully aspirated from each culture flask. The cells were washed carefully with 1×DPBS. The cells were then briefly digested with trypsin LE for 5 minutes at 23° C. and immediately resuspended in cell growth media. After resuspension, the cells were centrifuged at 1000 rpm for 3 minutes and the supernatant was discarded. The cells were resuspended in DPBS and once again centrifuged at 1000 rpm for 5 minutes. The supernatant was discarded and the cell pellet was resuspended in serum-free media supplemented with LPS (25 ng/mL final concentration) to enable the distribution of 30K THP-1 cells within 45 μL of media into each well of 384-well PDL-coated plates. The 384-well plates were then incubated at 37° C. under a humidified atmosphere of 5% CO2 for 2 h. Following this period, test compounds were dispensed by Tecan across the desired concentration range with all wells normalized to a final 0.5% DMSO concentration. The plates were then incubated at 37° C. under a humidified atmosphere of 5% CO2 for 1 h. Following this period, 5 μL of the 5 mg/mL nigericin stock solution was added to each of the appropriate wells and plates were centrifuged at 1000 rpm for 30 seconds. The plates were the immediately reintroduced to the incubator at 37° C. under a humidified atmosphere of 5% CO2 for 2 h. After this time, 35 μL/well of supernatant was collected and transferred into v-bottom plate and centrifuged at 1000 rpm for 1 minute. These supernatant aliquots were analyzed using an IL-Iβ detection kit as described below. If needed, the test samples could be snap frozen and stored at −80° C. until analyzed.
To prepare each ELISA plate, capture antibody (mAb Mt175) was diluted with PBS to a final concentration of 2 μg/mL and then 20 μL of this solution was added to each well of the ELISA plate. Each plate was allowed to incubate overnight at 4° C. The next day, the capture antibody solution was removed and discarded. Each ELISA plate was washed 4 times with PBST followed by the addition of 25 μL/well of blocking buffer (Licor-927-40010) supplemented with 0.1% Tween 20. […]

`O=C(CN1C(=O)c2ccc(Br)cc2C2(CCCC2)C1=O)Nc1ncc(F)cn1` [Example 12, 2-(6′-bromo-1′,3′-dioxospiro[cyclopentane-1,4′-isoquinoline]-2′-yl)-N-(5-fluoropyrimidin-2-yl)acetamide]: the concentration for half-maximal inhibition (IC50) (commonly the concentration needed to halve the response being measured) reads like this: (THP-1, class symbol) under 10 µM; (THP-1, numeric value) 1.36 µM.
On to `CC1(C(F)(F)F)C(=O)N(CC(=O)Nc2ncc(F)cn2)C(=O)c2ccc(Br)cc21` (stereo not drawn) [Example 17, 2-[6-bromo-4-methyl-1,3-dioxo-4-(trifluoromethyl)isoquinolin-2-yl]-N-(5-fluoropyrimidin-2-yl)acetamide], for which the IC50 runs as follows: (THP-1, class symbol) under 10 µM; (THP-1, numeric value) 2.4 µM.
For the molecule `O=C1c2ccc(Br)cc2C2(CC2)C(=O)N1C1(C(=O)Nc2ncc(F)cn2)CC1` [Example 22, 1-(6′-bromo-1′,3′-dioxospiro[cyclopropane-1,4′-isoquinoline]-2′-yl)-N-(5-fluoropyrimidin-2-yl)cyclopropane-1-carboxamide], the half-inhibitory concentration (IC50) reads like this: (THP-1, class symbol) under 10 µM; (THP-1, numeric value) 8.08 µM.
